The target in one experiment is PTP-MEG2 (Homo sapiens (Human), UniProt P43378). As to the kind of experiment: pNPP hydrolysis enzyme assay, PTP-MEG2. The format is biochemical. The following applies: for IC50: pNPP substrate, pH 7.0, 25° C., read-out: IC50 for PTP-MEG2. The procedure:
(§1) Enzyme kinetic assay. PTP activity was assayed using p-nitrophenyl phosphate (pNPP) as a substrate in 3,3-dimethylglutarate buffer (50 mM 3,3-dimethylglutarate, pH 7.0, 1 mM EDTA, 150 mM NaCl, 2 mM DTT, 0.1 mg/mL BSA) at 25° C. The assays were performed in 96-well plates. Normally, to determine the IC50 values, the reaction was initiated by the addition of enzyme (final concentration at 10 nM) to a reaction mixture (0.2 mL) containing 2 mM (Km for the substrate) pNPP with various concentrations of inhibitors. The reaction rate was measured using a SpectraMax Plus 384 Microplate Spectrophotometer (Molecular Devices). To determine the mode of inhibition, the reactions were initiated by the addition of PTP-MEG2 to the reaction mixtures (0.2 mL) containing various concentrations of pNPP with different concentrations of the inhibitor 7. Data were fitted using SigmaPlot Enzyme Kinetics Module (Systat Software, Inc.).
PTP-MEG2 Overexpression, and Purification. The expression vector containing residues 277-582 of PTP-MEG2 catalytic domain was provided by Stefan Knapp at the University of Oxford. For protein expression, transformed cells were grown at 37° C. in Luria broth (LB) containing […] ampicillin for 4 h to an OD600 nm @0.6, and then induced for overnight at 18° C. with 0.4 mM IPTG. Cells were harvested by centrifugation (6500 rpm for 15 min at 4° C.), and the cell pellets from 1.5 L LB medium were suspended in 30 mL of ice-cold lysis buffer consisting of 5 mM imidazole, 500 mM NaCl, 20 mM Tris-HCl (pH 7.9), 0.05 mg/mL trypsin inhibitor and 0.1 mM PMSF. The suspensions were passed twice through a French Press at 1200 psi, and the cell lysates were centrifuged at 4° C. for 30 min at 16,000 rpm. The supernatants were mixed with 2 mL Ni-NTA Agarose (His*Bind Resin) (Qiagen) at 4° C. for 1 hour, then transferred mixture to an empty column. The column was washed by 200 mL binding buffer (5 mM imidazole, 500 mM NaCl, 20 mM Tris-HCl (pH 7.9)), followed by 20 mL wash buffer (20 mM imidazole, 500 mM NaCl, 20 mM Tris-HCl (pH 7.9)), and then eluted with 20 mL elution buffer (200 mM imidazole, 500 mM NaCl, 20 mM Tris-HCl (pH 7.9), 5 mM DTT). The elution was dialyzed for 6 h at 4° C. against 1 L buffer A (50 mM NaCl, 20 mM MES (pH6.0), 1 mM EDTA), and then loaded onto a Mono S column equilibrated at 4° C. with buffer A. The column was washed with 10 ml buffer A and then eluted with a 40 mL linear gradient of 0 to 1M NaCl in buffer A. The PTP-MEG2 was eluted at 0.35 M NaCl. The column fractions were analyzed by measuring the absorbance at 280 nm and by carrying out SDS-PAGE analysis. The fractions were combined, dialyzed against 1 L buffer A and concentrated at 4° C. to 8 mg/mL using an Amicon concentrator and then stored at −80° C.

The next experiment deals with PTP1B (Homo sapiens (Human), UniProt P18031). As to the kind of experiment: pNPP hydrolysis enzyme assay, PTP1B. The format is biochemical. As to the method:
as §1

Chain of PTP-MEG2 (P43378 277-582): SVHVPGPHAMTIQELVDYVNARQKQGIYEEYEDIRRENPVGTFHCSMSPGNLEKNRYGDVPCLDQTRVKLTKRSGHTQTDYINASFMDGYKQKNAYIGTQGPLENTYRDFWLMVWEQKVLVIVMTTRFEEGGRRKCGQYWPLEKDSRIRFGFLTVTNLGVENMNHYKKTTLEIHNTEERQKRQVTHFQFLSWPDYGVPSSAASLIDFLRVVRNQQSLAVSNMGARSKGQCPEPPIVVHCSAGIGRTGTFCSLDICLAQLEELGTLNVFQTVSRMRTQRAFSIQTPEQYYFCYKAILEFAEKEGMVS
Chain of PTP1B (P18031 whole entry, species assumed): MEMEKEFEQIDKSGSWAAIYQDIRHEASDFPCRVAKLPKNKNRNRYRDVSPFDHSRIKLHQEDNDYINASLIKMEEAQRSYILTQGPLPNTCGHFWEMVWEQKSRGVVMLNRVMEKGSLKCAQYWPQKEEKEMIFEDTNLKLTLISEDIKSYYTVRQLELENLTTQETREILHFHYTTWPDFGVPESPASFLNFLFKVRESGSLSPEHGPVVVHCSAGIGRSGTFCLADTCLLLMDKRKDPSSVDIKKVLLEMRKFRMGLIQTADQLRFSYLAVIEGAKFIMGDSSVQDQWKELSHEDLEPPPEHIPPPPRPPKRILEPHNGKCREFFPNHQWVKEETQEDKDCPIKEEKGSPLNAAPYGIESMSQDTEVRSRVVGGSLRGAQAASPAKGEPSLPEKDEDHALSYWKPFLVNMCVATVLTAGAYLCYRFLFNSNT

Broadly, the IC50 is the point on the concentration scale where inhibition reaches its midpoint. As to `Cc1ccc(C(=O)NC(Cc2ccc(C(F)(F)P(=O)(O)O)cc2)C(=O)NC(CCCNC(=O)c2cccc(I)c2)C(N)=O)cc1Br` (centres unmarked) [Compound 5], at PTP-MEG2 (Compound 5 vs Compound 3, Compound 7 vs Compound 5), the “improvement in potency / binding affinity for PTP-MEG2 over the preceding lead” value turned out to be 3.3 fold. Moreover, the IC50 on PTP-MEG2 was 270 ± 70 nM; against PTP1B (pNPP substrate), 3400 ± 80 nM. Further, the “selectivity for PTP-MEG2 over PTP1B” value on PTP1B (ratio of IC50 values) was found to be 12.6 fold.
`CC(=O)NC(Cc1ccc(C(F)(F)P(=O)(O)O)cc1)C(=O)NC(CCCNC(=O)c1cccc(I)c1)C(N)=O` (centres unmarked) [Compound 3]: at PTP-MEG2, the IC50 was determined as 900 ± 20 nM.
